Earlier results as cited in patent publication US20070281345A1, “Enzymatic Method of Making Aldehydes from Fatty Acids” (Archer-Daniels-Midland Company, priority 2006, published 2007).

Settings: AOCS Method Tg1a-67 (determined) or Cd1c-85 (calculated)

CCC=CCC=CCC=CCC=CCC=CCCCC(=O)O [eicosapentaenoic acid, 5,8,11,14,17-eicosapentaenoic acid]
iodine value: greater than the iodine value of linoleic acid

CCC=CCC=CCC=CCC=CCC=CCC=CCCC(=O)O [docosahexaenoic acid, 4,7,10,13,16,19-docosahexaenoic acid]
iodine value: greater than the iodine value of linoleic acid

CCCCC/C=C\C/C=C\CCCCCCCC(=O)O [linoleic acid]
iodine value: 173

CCCCC/C=C\C/C=C\C/C=C\C/C=C\CCCC(=O)O [arachidonic acid]
iodine value: greater than the iodine value of linoleic acid

CCCCCCCC/C=C\CCCCCCCC(=O)O [oleic acid]
iodine value: 89
